Legend:
Format in all cases: functional
CAKI-1 [1] = test: Cytotoxicity against human Caki1 cells assessed as growth inhibition after 48 hrs by sulforhodamine B assay; conditions: CAKI-1, 48 h
CAKI-1 [2] = test: Cytotoxicity against human Caki1 cells assessed as cell growth at 0.01 uM after 48 hrs by sulforhodamine B assay relative to control; conditions: CAKI-1, 48 h, read-out: Activity
SK-MEL-2 [3] = test: Cytotoxicity against human SK-MEL-2 cells assessed as cell growth at 0.01 uM after 48 hrs by sulforhodamine B assay relative to control; conditions: SK-MEL-2, 48 h, read-out: Activity
LOX IMVI [4] = test: Cytotoxicity against human LOXIMVI cells assessed as cell growth at 0.01 uM after 48 hrs by sulforhodamine B assay relative to control; conditions: read-out: Activity
LOX IMVI [5] = test: Cytotoxicity against human LOXIMVI cells assessed as cell growth at 0.1 uM after 48 hrs by sulforhodamine B assay relative to control; conditions: read-out: Activity
SK-MEL-2 [6] = test: Cytotoxicity against human SK-MEL-2 cells assessed as cell growth at 0.1 uM after 48 hrs by sulforhodamine B assay relative to control; conditions: SK-MEL-2, 48 h, read-out: Activity
CAKI-1 [7] = test: Cytotoxicity against human Caki1 cells assessed as cell growth at 0.1 uM after 48 hrs by sulforhodamine B assay relative to control; conditions: CAKI-1, 48 h, read-out: Activity
LOX IMVI [8] = test: Cytotoxicity against human LOXIMVI cells assessed as cell growth at 1 uM after 48 hrs by sulforhodamine B assay relative to control; conditions: read-out: Activity
SK-MEL-2 [9] = test: Cytotoxicity against human SK-MEL-2 cells assessed as cell growth at 1 uM after 48 hrs by sulforhodamine B assay relative to control; conditions: SK-MEL-2, 48 h, read-out: Activity
CAKI-1 [10] = test: Cytotoxicity against human Caki1 cells assessed as cell growth at 1 uM after 48 hrs by sulforhodamine B assay relative to control; conditions: CAKI-1, 48 h, read-out: Activity
LOX IMVI [11] = test: Cytotoxicity against human LOXIMVI cells assessed as cell growth at 10 uM after 48 hrs by sulforhodamine B assay relative to control; conditions: read-out: Activity
SK-MEL-2 [12] = test: Cytotoxicity against human SK-MEL-2 cells assessed as cell growth at 10 uM after 48 hrs by sulforhodamine B assay relative to control; conditions: SK-MEL-2, 48 h, read-out: Activity
CAKI-1 [13] = test: Cytotoxicity against human Caki1 cells assessed as cell growth at 10 uM after 48 hrs by sulforhodamine B assay relative to control; conditions: CAKI-1, 48 h, read-out: Activity
LOX IMVI [14] = test: Cytotoxicity against human LOXIMVI cells assessed as cell growth at 100 uM after 48 hrs by sulforhodamine B assay relative to control; conditions: read-out: Activity
SK-MEL-2 [15] = test: Cytotoxicity against human SK-MEL-2 cells assessed as cell growth at 100 uM after 48 hrs by sulforhodamine B assay relative to control; conditions: SK-MEL-2, 48 h, read-out: Activity
CAKI-1 [16] = test: Cytotoxicity against human Caki1 cells assessed as cell growth at 100 uM after 48 hrs by sulforhodamine B assay relative to control; conditions: CAKI-1, 48 h, read-out: Activity
HOP-92 [17] = test: Cytotoxicity against human HOP92 cells assessed as growth inhibition after 48 hrs by sulforhodamine B assay; conditions: HOP-92, 48 h
SF-295 [18] = test: Cytotoxicity against human SF295 cells assessed as growth inhibition after 48 hrs by sulforhodamine B assay; conditions: SF-295, 48 h
SNB-75 [19] = test: Cytotoxicity against human SNB75 cells assessed as growth inhibition after 48 hrs by sulforhodamine B assay; conditions: SNB-75, 48 h
SNB-75 [20] = test: Cytotoxicity against human SNB75 cells assessed as cell growth at 0.01 uM after 48 hrs by sulforhodamine B assay relative to control; conditions: SNB-75, 48 h, read-out: Activity
SF-295 [21] = test: Cytotoxicity against human SF295 cells assessed as cell growth at 0.01 uM after 48 hrs by sulforhodamine B assay relative to control; conditions: SF-295, 48 h, read-out: Activity
HOP-92 [22] = test: Cytotoxicity against human HOP92 cells assessed as cell growth at 0.01 uM after 48 hrs by sulforhodamine B assay relative to control; conditions: HOP-92, 48 h, read-out: Activity
HOP-92 [23] = test: Cytotoxicity against human HOP92 cells assessed as cell growth at 0.1 uM after 48 hrs by sulforhodamine B assay relative to control; conditions: HOP-92, 48 h, read-out: Activity
SF-295 [24] = test: Cytotoxicity against human SF295 cells assessed as cell growth at 0.1 uM after 48 hrs by sulforhodamine B assay relative to control; conditions: SF-295, 48 h, read-out: Activity
SNB-75 [25] = test: Cytotoxicity against human SNB75 cells assessed as cell growth at 0.1 uM after 48 hrs by sulforhodamine B assay relative to control; conditions: SNB-75, 48 h, read-out: Activity
HOP-92 [26] = test: Cytotoxicity against human HOP92 cells assessed as cell growth at 1 uM after 48 hrs by sulforhodamine B assay relative to control; conditions: HOP-92, 48 h, read-out: Activity
SF-295 [27] = test: Cytotoxicity against human SF295 cells assessed as cell growth at 1 uM after 48 hrs by sulforhodamine B assay relative to control; conditions: SF-295, 48 h, read-out: Activity
SNB-75 [28] = test: Cytotoxicity against human SNB75 cells assessed as cell growth at 1 uM after 48 hrs by sulforhodamine B assay relative to control; conditions: SNB-75, 48 h, read-out: Activity
HOP-92 [29] = test: Cytotoxicity against human HOP92 cells assessed as cell growth at 10 uM after 48 hrs by sulforhodamine B assay relative to control; conditions: HOP-92, 48 h, read-out: Activity
SF-295 [30] = test: Cytotoxicity against human SF295 cells assessed as cell growth at 10 uM after 48 hrs by sulforhodamine B assay relative to control; conditions: SF-295, 48 h, read-out: Activity
SNB-75 [31] = test: Cytotoxicity against human SNB75 cells assessed as cell growth at 10 uM after 48 hrs by sulforhodamine B assay relative to control; conditions: SNB-75, 48 h, read-out: Activity
HOP-92 [32] = test: Cytotoxicity against human HOP92 cells assessed as cell growth at 100 uM after 48 hrs by sulforhodamine B assay relative to control; conditions: HOP-92, 48 h, read-out: Activity
SF-295 [33] = test: Cytotoxicity against human SF295 cells assessed as cell growth at 100 uM after 48 hrs by sulforhodamine B assay relative to control; conditions: SF-295, 48 h, read-out: Activity
SNB-75 [34] = test: Cytotoxicity against human SNB75 cells assessed as cell growth at 100 uM after 48 hrs by sulforhodamine B assay relative to control; conditions: SNB-75, 48 h, read-out: Activity

COc1cc(-c2cc(/C=C/C(=O)c3ccc(F)c(F)c3)[nH]n2)cc(OC)c1OC
LC50 (CAKI-1 [1]): > 100 µM | TGI (CAKI-1 [1]): > 100 µM | growth at 0.01 µM (CAKI-1 [2]): 95% | growth at 0.01 µM (SK-MEL-2 [3]): 93% | growth at 0.01 µM (LOX IMVI [4]): 93% | growth at 0.1 µM (LOX IMVI [5]): 94% | growth at 0.1 µM (SK-MEL-2 [6]): 98% | growth at 0.1 µM (CAKI-1 [7]): 94% | growth at 1 µM (LOX IMVI [8]): 92% | growth at 1 µM (SK-MEL-2 [9]): 94% | growth at 1 µM (CAKI-1 [10]): 84% | growth at 10 µM (LOX IMVI [11]): 8% | growth at 10 µM (SK-MEL-2 [12]): -28% | growth at 10 µM (CAKI-1 [13]): 12% | growth at 100 µM (LOX IMVI [14]): -86% | growth at 100 µM (SK-MEL-2 [15]): -64% | growth at 100 µM (CAKI-1 [16]): 3%

COc1ccc(-c2cc(/C=C/C(=O)c3cc(OC)c(OC)c(OC)c3)[nH]n2)cc1OC
GI50 (HOP-92 [17]): 1.61 µM | TGI (HOP-92 [17]): 5.48 µM | CC50 (HOP-92 [17]; read-out: LC50 (the source's name)): 26.6 µM | GI50 (SF-295 [18]): 1.67 µM | LC50 (SF-295 [18]): 12.5 µM | TGI (SF-295 [18]): 4.26 µM | GI50 (SNB-75 [19]): 1.31 µM | LC50 (concentration killing 50% of cells) (SNB-75 [19]): 12.7 µM | TGI (SNB-75 [19]): 3.77 µM | growth at 0.01 µM (SK-MEL-2 [3]): 100% | growth at 0.01 µM (LOX IMVI [4]): 96% | growth at 0.01 µM (SNB-75 [20]): 88% | growth at 0.01 µM (SF-295 [21]): 97% | growth at 0.01 µM (HOP-92 [22]): 103% | growth at 0.1 µM (HOP-92 [23]): 74% | growth at 0.1 µM (SF-295 [24]): 87% | growth at 0.1 µM (SNB-75 [25]): 77% | growth at 0.1 µM (LOX IMVI [5]): 94% | growth at 0.1 µM (SK-MEL-2 [6]): 95% | growth at 1 µM (HOP-92 [26]): 70% | growth at 1 µM (SF-295 [27]): 77% | growth at 1 µM (SNB-75 [28]): 63% | growth at 1 µM (LOX IMVI [8]): 78% | growth at 1 µM (SK-MEL-2 [9]): 97% | growth at 10 µM (HOP-92 [29]): -25% | growth at 10 µM (SF-295 [30]): -46% | growth at 10 µM (SNB-75 [31]): -46% | growth at 10 µM (LOX IMVI [11]): -91% | growth at 10 µM (SK-MEL-2 [12]): -12% | growth at 100 µM (HOP-92 [32]): -84% | growth at 100 µM (SF-295 [33]): -91% | growth at 100 µM (SNB-75 [34]): -82% | growth at 100 µM (LOX IMVI [14]): -69% | growth at 100 µM (SK-MEL-2 [15]): -92%
